This is an account of results in the RepoRT retention time repository (doi:10.1007/s00216-021-03828-0).

What all share (settings): stereoisomer not certain
Data set [1] in a line: RP, Merck Supelco Ascentis Express C18, 100 × 2.1 mm, 2 µm, 40 °C, 0.2 mL/min, estimated dead time 1.1 min; A: water + 0.1% formic acid, pH 3; B: acetonitrile + 0.1% formic acid, pH 3; gradient (min/%B) 0/5 2/5 17/99.9 20/99.9.
Data set [2] in a line: RP, Merck Supelco Ascentis Express C18, 100 × 2.1 mm, 2 µm, 39 °C, 0.3 mL/min, estimated dead time 0.73 min; A: water + 0.1% formic acid, pH 3; B: acetonitrile + 0.1% formic acid, pH 3; gradient (min/%B) 0/5 2/5 17/99.9 20/99.9.
Data set [3] can be described thus: RP, Merck Supelco Ascentis Express C18, 100 × 2.1 mm, 2 µm, 40 °C, 0.4 mL/min, estimated dead time 0.55 min; A: water + 0.1% formic acid, pH 3; B: acetonitrile + 0.1% formic acid, pH 3; gradient (min/%B) 0/5 2/5 17/99.9 20/99.9.
A short description of data set [4]: RP, Merck Supelco Ascentis Express C18, 100 × 2.1 mm, 2 µm, 40 °C, 0.25 mL/min, estimated dead time 0.88 min; A: water + 0.1% formic acid, pH 3; B: acetonitrile + 0.1% formic acid, pH 3; gradient (min/%B) 0/5 2/5 17/99.9 20/99.9.
The nature of data set [5]: RP, Merck Supelco Ascentis Express C18, 100 × 2.1 mm, 2 µm, 40 °C, 0.2 mL/min, estimated dead time 1.1 min; A: water + 0.1% formic acid, pH 3; B: acetonitrile + 0.1% formic acid, pH 3; gradient (min/%B) 0/5 2/5 17/99.9 20/99.9. The source holds these as a separate data set.

For the compound `CC(O)c1ccccc1` (configuration not stated) [1-PHENYLETHANOL], the LC retention time in data set [1] was 8.6 min; in data set [2], 7.38 min; in data set [3] it was 6.7 min; in data set [4] it was 7.9 min.

Turning to `O=c1cccc(O)[nH]1` [2,6-DIHYDROXYPYRIDINE], the LC retention time was 1.53 min in data set [1], 0.947 min in data set [2], 0.73 min in data set [3] and 1.19 min in data set [4].

Turning to `Nc1ccccc1O` [2-AMINOPHENOL], the LC retention time in data set [1] is 1.34 min.

Regarding `O=C(O)c1ccc2ccccc2n1` [2-QUINOLINECARBOXYLATE], the LC retention time is 4.63 min in data set [1], 3.6 min in data set [2], 2.93 min in data set [3] and 4.05 min in data set [4].

Turning to `Nc1cc(O)cc(C(=O)O)c1` [3-AMINO-5-HYDROXYBENZOATE], the LC retention time in data set [1] was 1.32 min.

Take `O=C(O)c1cccc(O)c1` [3-HYDROXYBENZOATE]: the LC retention time in data set [1] is 5.31 min; in data set [2], 4.28 min; in data set [3], 3.62 min; in data set [4], 4.72 min.

On to `COc1cc(CCN)ccc1O` [3-METHOXYTYRAMINE], for which the LC retention time is 1.78 min in data set [1], 1.13 min in data set [2], 0.863 min in data set [3] and 1.37 min in data set [4].

`CC1C(=O)Nc2ccccc21` (configuration not stated) [3-METHYL-2-OXINDOLE]: the LC retention time in data set [1] is 7.09 min; in data set [2], 6.16 min; in data set [3] it was 5.56 min; in data set [4], 6.5 min.

Take `O=C(O)C(O)COP(=O)(O)O` (configuration not stated) [3-PHOSPHOGLYCERATE]: the LC retention time was 1.39 min in data set [1] and 0.663 min in data set [3].

On to `Cc1ccc(O)c(O)c1` [4-METHYLCATECHOL], for which the LC retention time in data set [1] is 2.48 min; in data set [2], 1.62 min; in data set [3], 1.24 min; in data set [4] it was 1.97 min.

`O=C1CCCCO1` [5-VALEROLACTONE]: the LC retention time in data set [1] was 3.96 min; in data set [2] it was 2.73 min; in data set [3] it was 2.06 min; in data set [4] it was 3.24 min.

`NCCc1cc(O)c(O)cc1O` [6-HYDROXYDOPAMINE]: the LC retention time in data set [3] is 0.893 min.

In the case of `O=C(O)C(O)C(O)C(O)C(O)COP(=O)(O)O` (configuration not stated) [6-PHOSPHOGLUCONATE], in data set [1], the LC retention time is 1.32 min.

On to `CC(C)CCCC(C)C1CCC2C3=CC=C4CC(O)CCC4(C)C3CCC21C` (configuration not stated) [7-DEHYDROCHOLESTEROL], for which the LC retention time is 11.4 min in data set [1], 15.1 min in data set [2], 9.92 min in data set [3] and 10.8 min in data set [4].

For the compound `CC(CCCC(C)(C)O)C1CCC2C3CC=C4CC(O)CCC4(C)C3CCC12C` (configuration not stated) [25-HYDROXYCHOLESTEROL], the LC retention time in data set [1] is 13.4 min; in data set [2], 17.8 min; in data set [3] it was 17 min; in data set [4], 18.3 min.

With `Nc1ncnc2c1ncn2C1OC(CO)C2OP(=O)(O)OC21` (configuration not stated) [ADENOSINE 2',3'-CYCLIC PHOSPHATE], the LC retention time in data set [1] is 1.34 min; in data set [5] it was 1.32 min.

Consider `Nc1ncnc2c1ncn2C1OC(CO)C(O)C1O` (configuration not stated) [ADENOSINE], for which the LC retention time in data set [1] was 1.33 min; in data set [5] it was 1.35 min.

As to `CCCCC(CC)COC(=O)c1ccccc1C(=O)OCC(CC)CCCC` (configuration not stated) [BIS(2-ETHYLHEXYL)PHTHALATE], the LC retention time in data set [1] was 19 min; in data set [2], 17.7 min; in data set [3] it was 17 min; in data set [4], 18.3 min.

As to `Cn1c(=O)c2c(ncn2C)n(C)c1=O` [CAFFEINE], the LC retention time in data set [1] is 4.96 min; in data set [2], 4.12 min; in data set [3], 3.63 min; in data set [4], 4.48 min.

Turning to `CC12CCC(=O)C=C1CCC1C2C(O)CC2(C)C(C(=O)CO)CCC12` (configuration not stated) [CORTICOSTERONE], the LC retention time in data set [1] was 9.16 min; in data set [2], 8.25 min; in data set [3], 7.73 min; in data set [4], 8.66 min.

Turning to `Nc1nc2c(ncn2C2OC3COP(=O)(O)OC3C2O)c(=O)[nH]1` (configuration not stated) [CYCLIC GMP], the figures for the LC retention time in data set [1] and in data set [5] were 1.34 min and 1.33 min, respectively.

As for `CC(=O)OCC(=O)C1CCC2C3CCC4=CC(=O)CCC4(C)C3CCC12C` (configuration not stated) [DEOXYCORTICOSTERONE ACETATE], the LC retention time in data set [1] is 12.2 min; in data set [2], 11.1 min; in data set [3] it was 10.5 min; in data set [4] it was 11.6 min.

For `CC(C)=CCCC(C)C1CCC2C3CC=C4CC(O)CCC4(C)C3CCC12C` (configuration not stated) [DESMOSTEROL], the LC retention time in data set [1] is 16.6 min; in data set [2], 15.1 min; in data set [3], 14.3 min; in data set [4] it was 15.8 min.

As to `CC12CCC3c4ccc(O)cc4CCC3C1CCC2O` (stereo not drawn) [ESTRADIOL-17ALPHA], the LC retention time in data set [1] was 10.3 min; in data set [2], 9.22 min; in data set [3], 8.64 min; in data set [4], 9.66 min.

With `O=C(O)CCCC(=O)O` [GLUTARATE], the LC retention time in data set [2] was 1.34 min.

For `Oc1ccc(O)cc1` [HYDROQUINONE], the LC retention time in data set [5] was 4.63 min.

In the case of `O=C(O)C=CC(=O)O` [MALEATE], the LC retention time in data set [3] is 0.693 min.

Regarding `CC1(O)CCOC(=O)C1` (configuration not stated) [MEVALOLACTONE], the LC retention time in data set [1] is 1.84 min; in data set [3], 0.903 min; in data set [4], 1.46 min.

For the compound `NCC(O)c1ccc(O)c(O)c1` (configuration not stated) [NORADRENALINE], the LC retention time in data set [3] is 1.07 min.

In the case of `O=C(O)CCC(=O)C(=O)O` [OXOGLUTARATE], the LC retention time in data set [5] was 1.41 min.

For `O=C1CCC(C(=O)O)N1` (configuration not stated) [OXOPROLINE], the LC retention time was 1.34 min in data set [1] and 1.32 min in data set [5].

As for `NCCc1ccccc1` [PHENETHYLAMINE], the results for the LC retention time in data set [3] and in data set [4] were 0.963 min and 1.54 min, respectively.

Turning to `O=CCc1ccccc1` [PHENYLACETALDEHYDE], the LC retention time in data set [3] is 1.09 min.

In the case of `O=C(O)C(=O)Cc1ccccc1` [PHENYLPYRUVATE], the LC retention time in data set [2] is 4.98 min.

Regarding `O=C([O-])c1ccccn1` [PICOLINATE], in data set [5], the LC retention time was 1.37 min.

With `Nc1nc2nccnc2c(=O)[nH]1` [PTERIN], the LC retention time in data set [1] and in data set [5] was 1.33 min each time.

`c1ccc2ncccc2c1` [QUINOLINE]: the LC retention time in data set [1] is 10.2 min; in data set [3], 2.49 min; in data set [4], 9 min.

For `O=C(O)C=C(CC(=O)O)C(=O)O` [TRANS-ACONITATE], the LC retention time in data set [2] is 0.887 min.

Consider `NC(Cc1c[nH]c2ccccc12)C(=O)O` (configuration not stated) [TRYPTOPHAN], for which, in data set [2], the LC retention time is 2.72 min.

With `NC(Cc1ccc(O)cc1)C(=O)O` (configuration not stated) [TYROSINE], the LC retention time in data set [1] was 1.33 min.

For the compound `O=C([O-])c1c[nH]c(=O)[nH]c1=O` [URACIL 5-CARBOXYLATE], the LC retention time in data set [1] was 1.39 min; in data set [5], 1.36 min; in data set [4], 1.07 min.
